Assay results: US20250034139A1, “AMINE COMPOUNDS HAVING ANTI-INFLAMMATORY, ANTIFUNGAL, ANTIPARASITIC, AND ANTICANCER ACTIVITY” (PHARMA CINQ, LLC, priority 2013, published 2025)

How the values were obtained:
[1] = system: 4T1 murine breast cancer cells; assay: Example S: in vitro anticancer screen, 4T1 cells, Wst1; type: cell-based, mouse; conditions: Mus musculus, 4T1, 18 h, 18 hr, Wst1; for viability at 1 µM: read-out: 4T1 1 μM, percent of cancer cell survival relative to vehicle treated cells; for viability at 5 µM: read-out: 4T1 5 μM, percent of cancer cell survival relative to vehicle treated cells
In short: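 4T1 cells seeded at 1×10^4/well were exposed to compound at 1 μM or 5 μM for 18 hr after plating. Wst1 tetrazolium dye was then added for about 2 hr and absorbance read at 450 nm (reference 630 nm). Values are percent survival relative to vehicle-treated cells.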

[2] = system: THP-1 cells; assay: Example D: LPS-triggered THP-1 cell death assay, acute/5-hour and chronic/48-hour; type: cell-based, Human; conditions: 10 ng/ml LPS, 0.1 μM test compound, 48 hours
Method: Compounds of the invention were tested at 0.1 μM versus AC in the LPS-triggered THP-1 cell death assay. Both acute/5-hour and chronic/48-hour phases of cell death were assessed. Compounds were screened in batches with DMSO as the negative control and AC as the high activity control.

[3] = system: PC-3 prostate cancer cells; assay: Example T: sensitisation of PC-3 cells to doxorubicin, oxaliplatin, paclitaxel or vincristine, Wst1; type: cell-based, human; conditions: PC-3 cells, 72 hours; for viability at 2.5 µM: compound 2.5 μM alone; for Doxorubicin 3.5 μM: percent cell survival / Oxaliplatin 100 μM: percent cell survival / Paclitaxel 50 μM: percent cell survival / Vincristine 100 nM: percent cell survival: chemotherapy agent alone normalized to 100%; for viability at 0.4 µM: compound 0.4 μM alone
[4] = system: PC3 human prostate cancer cells; assay: Example S: in vitro anticancer screen, PC-3 cells, Wst1; type: cell-based; conditions: Homo sapiens, PC-3, approximately 20 hours, Wst1, read-out: PC-3, percent of cancer cell survival relative to vehicle treated cells
In short: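 PC-3 cells, 2×10^4 cells/well, exposed ~20 h to vehicle or compound at 0.4, 0.5 or 2.5 μM as specified per compound. Wst1 dye added for 2 h; absorbance 450 nm (reference 630 nm), triplicates. Values are percent cell survival versus vehicle-treated cells.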

[5] = Homo sapiens, Wst1, vehicle = 100, read-out: No Chemo: percent cell survival
[6] = compound 2.5 μM + doxorubicin 3.5 μM
[7] = compound 2.5 μM + oxaliplatin 100 μM
[8] = compound 2.5 μM + paclitaxel 50 μM
[9] = compound 2.5 μM + vincristine 100 nM
[10] = compound 0.4 μM + doxorubicin 3.5 μM
[11] = compound 0.4 μM + oxaliplatin 100 μM
[12] = compound 0.4 μM + paclitaxel 50 μM
[13] = compound 0.4 μM + vincristine 100 nM

CCCCCCOc1ccc(Nc2ccnc3ccccc23)cc1 [DL, N-[4-(Hexyloxy)phenyl]quinolin-4-amine]
viability at 1 µM [1]: 70.9% | viability at 5 µM [1]: 21% | Viable cell percent change, Chronic/48-hour, Mean [2]: 61.01% | viability at 2.5 µM [3, 5]: 43% | Doxorubicin 3.5 μM: percent cell survival [3, 6]: 193.5% | Oxaliplatin 100 μM: percent cell survival [3, 7]: 172.6% | Paclitaxel 50 μM: percent cell survival [3, 8]: 164.8% | Vincristine 100 nM: percent cell survival [3, 9]: 164.9% | viability at 2.5 µM [4]: 43%

c1ccc(COc2cccc(Nc3ccnc4ccccc34)c2)cc1 [DM, N-[3-(Benzyloxy)phenyl]quinolin-4-amine]
viability at 1 µM [1]: 128% | viability at 5 µM [1]: 47.8% | Viable cell percent change, Chronic/48-hour, Mean [2]: 34.67% | viability at 2.5 µM [3, 5]: 45.6% | Doxorubicin 3.5 μM: percent cell survival [3, 6]: 79.2% | Oxaliplatin 100 μM: percent cell survival [3, 7]: 91.1% | Paclitaxel 50 μM: percent cell survival [3, 8]: 105.4% | Vincristine 100 nM: percent cell survival [3, 9]: 92.1% | viability at 2.5 µM [4]: 45.6%

CCCCCCOc1cccc(Nc2ccnc3ccccc23)c1 [DN, N-[3-(Hexyloxy)phenyl]quinolin-4-amine]
viability at 1 µM [1]: 104% | viability at 5 µM [1]: 56.7% | Viable cell percent change, Chronic/48-hour, Mean [2]: 77.15% | viability at 2.5 µM [3, 5]: 31.7% | Doxorubicin 3.5 μM: percent cell survival [3, 6]: 64.1% | Oxaliplatin 100 μM: percent cell survival [3, 7]: 78% | Paclitaxel 50 μM: percent cell survival [3, 8]: 64.7% | Vincristine 100 nM: percent cell survival [3, 9]: 72.3% | viability at 2.5 µM [4]: 31.7%

c1ccc(COc2ccccc2Nc2ccnc3ccccc23)cc1 [DO, N-[2-(Benzyloxy)phenyl]quinolin-4-amine]
viability at 1 µM [1]: 116% | viability at 5 µM [1]: 35.2% | Viable cell percent change, Chronic/48-hour, Mean [2]: 36.46% | viability at 2.5 µM [3, 5]: 59.2% | Doxorubicin 3.5 μM: percent cell survival [3, 6]: 79.9% | Oxaliplatin 100 μM: percent cell survival [3, 7]: 89.9% | Paclitaxel 50 μM: percent cell survival [3, 8]: 93.4% | Vincristine 100 nM: percent cell survival [3, 9]: 90.1% | viability at 2.5 µM [4]: 59.2%

CCCCCCOc1ccccc1Nc1ccnc2ccccc12 [DP, N-[2-(Hexyloxy)phenyl]quinolin-4-amine]
viability at 1 µM [1]: 72.5% | viability at 5 µM [1]: 25.4% | Viable cell percent change, Chronic/48-hour, Mean [2]: 42.36% | viability at 2.5 µM [3, 5]: 37.5% | Doxorubicin 3.5 μM: percent cell survival [3, 6]: 65.3% | Oxaliplatin 100 μM: percent cell survival [3, 7]: 77.4% | Paclitaxel 50 μM: percent cell survival [3, 8]: 64.6% | Vincristine 100 nM: percent cell survival [3, 9]: 74.1% | viability at 2.5 µM [4]: 37.5%

c1ccc(CCNc2ccnc3ccccc23)cc1 [DR, N-Phenethylquinolin-4-amine]
viability at 1 µM [1]: 77.9% | viability at 5 µM [1]: 27.2% | Viable cell percent change, Chronic/48-hour, Mean [2]: 27.12% | viability at 2.5 µM [3, 5]: 31.5% | Doxorubicin 3.5 μM: percent cell survival [3, 6]: 59.9% | Oxaliplatin 100 μM: percent cell survival [3, 7]: 68.7% | Paclitaxel 50 μM: percent cell survival [3, 8]: 49.2% | Vincristine 100 nM: percent cell survival [3, 9]: 35.5% | viability at 2.5 µM [4]: 31.5%

CCCCCCOc1ccccc1CNc1ccnc2ccccc12 [DS, N-[2-(Hexyloxy)benzyl]quinolin-4-amine]
viability at 1 µM [1]: 35.6% | viability at 5 µM [1]: 25.5% | Viable cell percent change, Chronic/48-hour, Mean [2]: 56.67% | viability at 0.4 µM [3, 5]: 70% | Doxorubicin 3.5 μM: percent cell survival [3, 10]: 86.4% | Oxaliplatin 100 μM: percent cell survival [3, 11]: 97% | Paclitaxel 50 μM: percent cell survival [3, 12]: 97.1% | Vincristine 100 nM: percent cell survival [3, 13]: 98.6% | viability at 0.4 µM [4]: 70%

O=C(NCCCCCCCCNc1ccnc2ccccc12)c1ccccc1 [DY, N-[8-(Quinolin-4-ylamino)octyl]benzamide]
viability at 1 µM [1]: 88.9% | viability at 5 µM [1]: 60.5% | Viable cell percent change, Chronic/48-hour, Mean [2]: 45.25% | viability at 5 µM ([3]; Homo sapiens, compound 5 μM alone, Wst1, vehicle = 100, read-out: No Chemo: percent cell survival): 16.1% | Doxorubicin 3.5 μM: percent cell survival ([3]; compound 5 μM + doxorubicin 3.5 μM): 21.2% | Oxaliplatin 100 μM: percent cell survival ([3]; compound 5 μM + oxaliplatin 100 μM): 20.6% | Paclitaxel 50 μM: percent cell survival ([3]; compound 5 μM + paclitaxel 50 μM): 23.3% | Vincristine 100 nM: percent cell survival ([3]; compound 5 μM + vincristine 100 nM): 18.3% | viability at 5 µM ([4]; 5 μM): 16.1%

COc1cccc(C(=O)NCCCCCCCCNc2ccnc3ccccc23)c1 [DZ, 3-Methoxy-N-[8-(quinolin-4-ylamino)octyl]benzamide]
viability at 1 µM [1]: 23.7% | viability at 5 µM [1]: 17.4% | Viable cell percent change, Chronic/48-hour, Mean [2]: 73.5% | viability at 0.4 µM [3, 5]: 84.8% | Doxorubicin 3.5 μM: percent cell survival [3, 10]: 85.6% | Oxaliplatin 100 μM: percent cell survival [3, 11]: 86.7% | Paclitaxel 50 μM: percent cell survival [3, 12]: 71.8% | Vincristine 100 nM: percent cell survival [3, 13]: 89% | viability at 0.4 µM [4]: 84.8%

COc1ccc(C(=O)NCCCCCCCCNc2ccnc3ccccc23)cc1 [EA, 4-Methoxy-N-[8-(quinolin-4-ylamino)octyl]benzamide]
viability at 1 µM [1]: 31.1% | viability at 5 µM [1]: 36.8% | Viable cell percent change, Chronic/48-hour, Mean [2]: 73.48% | viability at 0.4 µM [3, 5]: 108% | Doxorubicin 3.5 μM: percent cell survival [3, 10]: 87.8% | Oxaliplatin 100 μM: percent cell survival [3, 11]: 89% | Paclitaxel 50 μM: percent cell survival [3, 12]: 73.5% | Vincristine 100 nM: percent cell survival [3, 13]: 84.5% | viability at 0.4 µM [4]: 108%

O=C(NCCCCCCCCNc1ccnc2ccccc12)c1ccccn1 [EE, N-[8-(Quinolin-4-ylamino)octyl]picolinamide]
viability at 1 µM [1]: 24% | viability at 5 µM [1]: 18.1% | Viable cell percent change, Chronic/48-hour, Mean [2]: 24.32% | viability at 0.4 µM [3, 5]: 34% | Doxorubicin 3.5 μM: percent cell survival [3, 10]: 66.4% | Oxaliplatin 100 μM: percent cell survival [3, 11]: 70.8% | Paclitaxel 50 μM: percent cell survival [3, 12]: 45.3% | Vincristine 100 nM: percent cell survival [3, 13]: 47.1% | viability at 0.4 µM [4]: 34%

O=C(NCCCCCCCCNc1ccnc2ccccc12)c1ccncc1 [EG, N-[8-(Quinolin-4-ylamino)octyl]isonicotinamide]
viability at 1 µM [1]: 34.7% | viability at 5 µM [1]: 27.7% | Viable cell percent change, Chronic/48-hour, Mean [2]: 60.59% | viability at 0.4 µM [3, 5]: 92.2% | Doxorubicin 3.5 μM: percent cell survival [3, 10]: 91.3% | Oxaliplatin 100 μM: percent cell survival [3, 11]: 96.2% | Paclitaxel 50 μM: percent cell survival [3, 12]: 95.3% | Vincristine 100 nM: percent cell survival [3, 13]: 88.5% | viability at 0.4 µM [4]: 92.2%

CCCCCCNc1ccnc2ccccc12 [EI, N-Hexylquinolin-4-amine]
viability at 1 µM [1]: 95% | viability at 5 µM [1]: 45.8% | Viable cell percent change, Chronic/48-hour, Mean [2]: 39.53% | viability at 2.5 µM [3, 5]: 31.2% | Doxorubicin 3.5 μM: percent cell survival [3, 6]: 66.1% | Oxaliplatin 100 μM: percent cell survival [3, 7]: 75.1% | Paclitaxel 50 μM: percent cell survival [3, 8]: 50.1% | Vincristine 100 nM: percent cell survival [3, 9]: 69.5% | viability at 2.5 µM [4]: 31.2%
